# Measured values: ChEMBL document CHEMBL1157539, “Thousands of chemical starting points for antimalarial lead identification” (Nature, 2010)
# Tested on: Plasmodium falciparum
# Assay: GSK_TCMDC: Inhibition of Plasmodium falciparum 3D7 in whole erythrocytes, using parasite LDH activity as an index of growth.
# Type: functional, organism-based
# Details: Plasmodium falciparum, 3D7
row,SMILES,XC50
1,O=C(NCC1CCN(Cc2cccc(C(F)(F)F)c2)C1)c1cc(-c2cccc(C(F)(F)F)c2)cs1 (stereo not given),0.608 µM
2,O=C(NCCCCN1CCN(CC=Cc2ccccc2)CC1)c1ccc(NC(=O)c2cc(Cl)cc(Cl)c2)cc1,0.208 µM
3,CC(Nc1ncc(-c2ccsc2)c(-c2nccs2)n1)c1ccc2c(c1)OCCO2 (stereo not given),0.175 µM
4,O=C(/C=C/c1ccc(Cl)c(Cl)c1)NCCCCCN1CCC(NC(=O)NC2CCCCCC2)CC1,0.464 µM
5,CCCCCNc1nc(Nc2ccccc2C)nc2ccccc12,0.735 µM
6,CCCNCc1ccc(-c2ccc(CN(CCOC)C(=O)c3nn(-c4ccccc4)nc3C)cc2)nc1,0.725 µM
7,CN(Cc1cccc(C#N)c1)C1CCN(c2cc(NC(=O)c3ccc(F)cc3)ccn2)CC1,1.07 µM
8,CC1(C)N=C(N)N=C(N)N1OCCCOc1cccc(C(=O)O)c1,0.0399 µM
9,COc1ccc(C(=O)CCC(=O)N(Cc2ccc(-c3ccc(CNCCc4ccc(S(C)(=O)=O)cc4)cn3)cc2)C(C)CN(C)C)cc1F (stereo not given),0.65 µM
10,N#Cc1ccc(N(CCOc2ccc(Cl)c(F)c2)Cc2ccccc2C(F)(F)F)cc1C(F)(F)F,0.685 µM
11,CSc1ccc2ccccc2c1CCNCCCCNCCc1c(SC)ccc2ccccc12,0.408 µM
12,Cc1cnc(NCC2CCCCC2)nc1N[C@@H](CC(C)C)C(=O)Nc1ccccc1,0.869 µM
13,O=C(NCCCCCN1CCC(c2c[nH]c3ccccc23)CC1)Nc1cccc(C(F)(F)F)c1,1 µM
14,COc1ccc2c(CCNc3nc(SC)ncc3C(=O)NCCc3ccc(F)cc3)c[nH]c2c1,0.762 µM
15,CN1CCN(CCCN(C(=O)Nc2cc(C(F)(F)F)cc(C(F)(F)F)c2)c2ccccc2Cc2ccccc2)CC1,1.13 µM
16,N#Cc1ccc(NC(=O)NC2CCN(CCCCCNC(=O)/C=C/c3ccc(Cl)c(Cl)c3)CC2)cc1,0.8 µM
17,CCc1ccc(-n2c(NC(=O)c3ccccc3)nc3ccc(S(=O)(=O)NC(C)C(C)C)cc32)cc1 (stereo not given),0.926 µM
18,COc1ccc(C=NN=c2c3ccccc3[nH]c3ccccc23)c2ccccc12,1.13 µM
19,CC1CCN(Cc2c(O)ccc3c(O)c(-c4nc5ccccc5s4)c(=N)oc23)CC1,0.162 µM
20,FC(F)(F)c1ccc2[nH]c(-c3ccc(-c4cccc(CNCCN5CCNCC5)c4)cc3)nc2c1,1.03 µM
21,FC(F)(F)c1cccc(-c2cc(NCCCn3ccnc3)nc(-c3ccncc3)n2)c1,0.105 µM
22,COc1ccc(CN2CCC(N3CCc4cc(NC(=O)c5cc(C)on5)ccc43)C2)cc1Cl (stereo not given),0.939 µM
23,Cc1ccc(Cn2nc(Cl)c(N3CCNCC3)cc2=O)cc1NC(=O)Nc1ccc(-c2ccccc2)cc1,0.675 µM
24,Fc1ccc2[nH]c3c(NCCCN4CCOCC4)ncnc3c2c1,0.714 µM

row,SMILES,XC50
1,CCOc1ccc(NC(=O)c2ccc(NCCCN3CC(C)CC(C)C3)c([N+](=O)[O-])c2)cc1 (stereo not given),0.705 µM
2,COc1ccc2nccc([C@@H](O)CN3CCC(NC(=O)/C=C/c4cccc(-c5ccccc5)c4)CC3)c2c1,0.248 µM
3,CCOc1cc(CC)ccc1C1CCN(CCCCNC(=O)c2ccc(NC(=O)c3ccc(C#N)cc3)cc2)CC1,0.504 µM
4,C=CCC1OC(=O)c2cc(OC)cc(OC)c21 (stereo not given),0.343 µM
5,Oc1ccc(CCNc2nc(NCCOc3cccc4ccccc34)nc(N3CCNCC3)n2)cc1,0.901 µM
6,COc1cc(NC(=O)c2ccc(-c3ccc(C(C)=O)cc3)s2)ccc1OCCN1CCCC1,0.147 µM
7,CCCc1cc(OC)c(CC2c3cc(O)c(Cl)cc3C(c3ccccc3)CN2C)cc1OC (stereo not given),0.43 µM
8,Cc1cc(NC(=O)NCCN2CCC(NC(=O)c3ccc(F)cc3)CC2)c2ccccc2n1,0.331 µM
9,CC(=O)Oc1ccc(C(=O)Oc2ccccc2C#CC#N)cc1OC(C)=O,0.32 µM
10,CCc1ccc(CN(Cc2ccc(C)cc2)Cc2ccc(NC(C)=O)cc2)cc1,0.962 µM
11,COc1ccc(N2CCN(CCCN3CCN(C(=O)c4ccc(/C=C/c5ccc(Cl)c(Cl)c5)cc4)CC3)CC2)c(OC)c1,0.907 µM
12,COc1ccc(OC)c(-c2ccc(=O)n(CC(=O)Nc3cccc4ccccc34)n2)c1,0.901 µM
13,Fc1ccc(C2N=C(SCCSC3=NC(c4ccc(F)cc4)C(c4ccc(F)cc4)N3)NC2c2ccc(F)cc2)cc1 (stereo not given),0.912 µM
14,CN1CCCC(CN2CCN(Cc3cccc(-c4ccc(-c5nc6ccccc6[nH]5)cc4)c3)CC2)C1 (stereo not given),0.157 µM
15,CC(Nc1nc(Nc2ccc(F)cc2)nc(SCC(N)=O)n1)c1ccccc1 (stereo not given),0.496 µM
16,Nc1ncnc2cc(-c3cccc(NC(=O)Nc4ccccc4)c3)sc12,0.705 µM
17,O=C(Cc1ccc[n+]([O-])c1)Nc1ccc(-c2cccc(-c3nc4cc(C(F)(F)F)ccc4[nH]3)c2)cc1,0.882 µM
18,O=C(Cc1c[nH]cn1)Nc1ccc(-c2ccc(-c3nc4cc(F)ccc4[nH]3)cc2)cc1,0.731 µM
19,CC(C)COc1ccc(Cl)cc1Cc1ccc(-c2nc3ccc(Cl)cc3[nH]2)o1,0.925 µM
20,COc1ccc(N2CCN(c3nc(Nc4ccc(NC(C)=O)cc4)nc(N4CCCC4)n3)CC2)cc1,0.976 µM
21,COc1cc(NC(=O)CCCCCCCN2CCN(C)CC2)c2ncccc2c1,0.611 µM
22,Cn1cnc2c(SCc3ccc(OCc4ccccc4)cc3)ncnc21,0.557 µM
23,Cc1ccc(CNC(=O)[C@H](Cc2ccccc2)Nc2cc(C)nc(Nc3ccccc3)n2)cc1,0.853 µM
24,Cc1ccc(NC(=O)NC2CCN(c3ccnc4cc(Cl)ccc34)CC2)cc1,0.315 µM

row,SMILES,XC50
1,NOCCCCOc1cc(Cl)c(Cl)cc1Cl,0.175 µM
2,CNC(=O)CSc1nnc(-c2ccc(C)cc2)c(-c2ccc(C)cc2)n1,0.6 µM
3,CN(CCCCCN1CCC(NC(=O)Nc2ccc(C(F)(F)F)cc2)C1)C(=O)/C=C/c1ccc(Cl)c(Cl)c1 (stereo not given),0.771 µM
4,O=C1CCCN1CCCNCc1cccc(-c2ccc(-c3nc4cc(C(F)(F)F)ccc4[nH]3)s2)c1,0.448 µM
5,CCN(CC)CC#Cc1ccc2[nH]c(C)c(Cl)c(=O)c2c1,0.702 µM
6,N#Cc1ccccc1C1CCN(C2CCC(Nc3cc(-c4cccnc4)ccn3)CC2)CC1 (stereo not given),0.958 µM
7,COc1ccc2c(Nc3ccc(N4CCN(C)CC4)cc3)cc(C)nc2c1,0.719 µM
8,CC(C)Oc1ccc(N2CCN(CCCCNC(=O)c3ccc(NC(=O)c4ccc(Cl)cc4)cc3)CC2)c(OC(C)C)c1,0.512 µM
9,COC(=O)c1ccc(CCC(C)NCC(O)c2cccc(C(F)(F)F)c2)cc1 (stereo not given),0.411 µM
10,COc1cc(NC(=O)c2sc(-c3ccc(Cl)cc3)cc2Cl)ccc1OCCN1CCCC1,0.976 µM
11,COc1cc(NC(=O)c2sc(-c3ccc(Cl)cc3)cc2NC(=O)c2cccc(N(C)C)c2)ccc1OCCN1CCCC1,0.709 µM
12,Cc1cccc(-c2nc3[nH]c(=O)cc(NC(=O)C(C)C)n3n2)c1,0.421 µM
13,O=C(Cc1c(-c2ccccc2)[nH]c2ccccc12)NC1CCC(CN2CCC(c3c[nH]c4ccccc34)CC2)CC1 (stereo not given),0.476 µM
14,CN1CCN(CC(=O)Nc2cccc(-c3cccc(-c4nc5ccccc5[nH]4)c3)c2)CC1,1.29 µM
15,CN1CCC(O)(c2ccc(Br)cc2)C(C(O)c2ccc(Br)cc2)C1 (stereo not given),0.731 µM
16,CC(C)c1cn2c3c(cc(C(=O)N[C@@H](Cc4ccccc4)[C@H](O)CNC4CCCCC4)cc13)N(C)S(=O)(=O)CC2,0.03 µM
17,COc1ccc2nccc(N(C)CC3(O)CCN(CCc4ccc5c(c4)OCCO5)CC3)c2n1,0.143 µM
18,CC(C)N(CCOc1ccc2c(c1)N(C(=O)Nc1ccc(Cl)c(Cl)c1)CC2)C(C)C,0.367 µM
19,O=C(Cc1cccnc1)Nc1cccc(-c2cccc(-c3nc4cc(C(F)(F)F)ccc4[nH]3)c2)c1,0.677 µM
20,Cc1ccc(Nc2cc(C)nn2-c2nc(C)cc(O)n2)cc1,0.864 µM
21,COc1ccc(-c2nc(NC(=O)CS(=O)(=O)c3ccc(C)cc3)sc2C)cc1,0.401 µM
22,Cc1cc(N2CCCC2)nc(Nc2ccc(NC(=O)c3ccccc3)cc2)n1,0.977 µM
23,O=C(N[C@@H](CC1CCCCC1)C(=O)NCCN1CCOCC1)c1ccc(O)c(-c2ccc(Cl)c(Cl)c2)c1,0.181 µM
24,O=C(Cn1c(CCc2cccc(F)c2F)nc(=O)c2ccccc21)N(CCN1CCCCC1)Cc1ccc(-c2ccc(C(F)(F)F)cc2)cc1,0.757 µM

row,SMILES,XC50
1,CN(C)Cc1ccc(-c2cc3ncnc(Nc4ccc(OCc5cccc(F)c5)c(Cl)c4)c3s2)[nH]1,0.174 µM
2,Cc1cccc2nc(-c3ccc(-c4cccc(NC(=O)c5cnccc5C(F)(F)F)c4)cc3)[nH]c12,0.998 µM
3,CN(C)CC1CCCN1Cc1ccccc1-c1cnn(C)c(=O)c1Oc1ccccc1F (stereo not given),1.31 µM
4,CC(C)c1ccc(NC(=O)c2ccc(C(=O)NC3CCN(CC4CCCCC4)CC3)cc2)cc1,0.645 µM
5,COc1ccc(Br)cc1/C=C/C(=O)Nc1ccc2c(c1)CCCN(C)C2,1.56 µM
6,CN1CCN(CCCN(Cc2cccc(-c3ccc(CNC4CCCC4)cc3)c2)C(=O)/C=C/c2ccccc2)CC1,0.746 µM
7,CC(C)c1ccc2c(c1)c(SC(C)(C)C)c(CC(C)(C)C#N)n2Cc1ccc(Cl)cc1,0.225 µM
8,CN(C)CCN(C)C(=O)c1cc(-c2ccncc2)c(-c2ccc(Cl)c(O)c2)o1,1.05 µM
9,CCCCN(C(=O)c1ccccc1Cl)c1nnc(-c2ccccc2C)s1,1.02 µM
10,COc1ccccc1NC(=O)NC1CCN(CCCCCNC(=O)/C=C/c2ccc(Cl)c(Cl)c2)CC1,0.746 µM
11,COc1ccc2c(C)cc(NCCCN(C)C)nc2c1,1.1 µM
12,CCCCc1cc(=O)oc2cc(C)cc(OCc3ccccc3F)c12,1.03 µM
13,c1cc(CNCC2CCN(CC3CCCCC3)CC2)cc(-n2ccnc2)c1,0.545 µM
14,CCN(CC)CCN(Cc1ccc(-c2ccc(Br)cc2)cc1)C(=O)Cn1c(CCc2cccc(F)c2F)nc(=O)c2ccccc21,0.788 µM
15,CCN(CC)CCN(Cc1ccc(-c2ccc(C(F)(F)F)cc2)cc1)C(=O)Cn1c(CCc2cccc(F)c2F)nc(=O)c2ccccc21,0.671 µM
16,O=C1CCCN1CCCNCc1ccc(-c2cccc(-c3nc4ccccc4[nH]3)c2)cc1,1.02 µM
17,O=C(/C=C/c1ccc(Cl)c(Cl)c1)NCCCCCCN1CCCN(C(=O)Nc2ccc(Cl)c(C(F)(F)F)c2)CC1,0.565 µM
18,O=C(NCc1ccc(C(=O)NCc2cccc3ccccc23)cc1)c1ccc(O)c(-c2ccc(Cl)c(Cl)c2)c1,0.814 µM
19,Cn1nc(-c2cccc(CNCc3ccccc3)c2)c2cnc(NC3CCCC3)nc21,1.26 µM
20,CS(=O)(=O)CCN(CCS(C)(=O)=O)Cc1ccc(-c2ccc3ncnc(Nc4ccc(OCc5cccc(F)c5)c(Cl)c4)c3c2)o1,1.02 µM
21,CCc1cccc(NC(=O)/C=C/c2ccc3c(c2)CN(C)CC3)c1,0.767 µM
22,COc1ccc(C(=O)CCC(=O)N(Cc2ccc(-c3ccc(CNCCc4ccc(S(C)(=O)=O)cc4)cn3)cc2)C2CCN(Cc3ccccc3)CC2)cc1F,0.437 µM
23,COc1ccccc1CNC(=O)C(=O)Nc1c(-c2ccccc2)[nH]c2ccccc12,0.737 µM
